From PMC9154192 (PLoS Biology, 2022)
Values after ≈ are worked out from the molar mass of the structure shown.

What was measured:
M. tuberculosis H37Ra = assay: microbe, parasite or virus in culture; type: cell-based, Mycobacterium tuberculosis
[1] = test system: Murine Raw 264.7 macrophages; assay: in vitro; type: cell-based; details: RAW, MTT assay (Table S1)
Experimental: (§1) A549 human pulmonary epithelial cells (KCLB 10185), human embryonic kidney (HEK) 293 cells (KCLB 21573), human THP-1 leukemia cells (KCLB 40202), human neuroblastoma SH-SY5Y cells (KCLB 22266), Murine Raw 264.7 macrophages (KCLB 40071), and L929 murine fibroblasts (KCLB 10001) were purchased from the KCLB (Seoul, Korea). Cytotoxicity testing was performed using the MTT assay and the WST-1 cell viability assay as previously described.

L929 murine fibroblasts = assay: in vitro; type: cell-based; details: L929, MTT assay (Table S1)
Experimental: as §1

M. tuberculosis H37Rv = assay: microbe, parasite or virus in culture; type: cell-based, Mycobacterium tuberculosis; details: for SI (CC50/MIC): ratio of CC50 for L929 fibroblasts to MIC for strain H37Rv
A549 cell line = details: cited from earlier work

SMILES | MIC (M. tuberculosis H37Ra) [µg/mL] | CC50 [1] [µg/mL] | CC50 (L929 murine fibroblasts) [µg/mL] | MIC (M. tuberculosis H37Rv) [µg/mL] | SI (CC50/MIC) (M. tuberculosis H37Rv) | CC50 (A549 cell line) [µg/mL]
CCCCOc1ccc(/C=C(/C(=O)OC)c2ccc(OC)c(OC)c2)cc1 [DPGA9] | 25 (≈ 67.5 µM) | >100 | >100 | 25 (≈ 67.5 µM) | >4.0 | 
CCCCOc1ccc(/C=C(/C(=O)O)c2ccc(OC)c(OC)c2)cc1 [DPGA8] | >100 | >100 | 89.5 (≈ 251 µM) | >100 | <0.9 | 
COc1ccc(/C(=C\c2ccc(OCc3ccccc3)cc2)C(=O)O)cc1OC [DPGA2] | 100 (≈ 256 µM) | >100 | >100 | >100 |  | 
COc1ccc2c3c(c4cc(OC)c(OC)cc4c2c1)CN1CCC[C@H]1C3 [DPG, deoxypergularinine] |  |  |  |  |  | 18.7 (≈ 51.5 µM)
